Data from patent US9938292B2 (GUANGDONG ZHONGSHENG PHARMACEUTICAL CO., LTD, priority 2014, dated 2018).
pIC50: −log10 of the molar value.

Test system: Hedgehog signaling pathway
Assay: Gli-Luc luciferase reporter gene assay in C3H10T1/2/Gli-Luc cells under Shh-N stimulation
Format: cell-based
Conditions: Mus musculus, C3H 10T1/2, 24 h, luciferase RLU, read-out: biological activity: IC50 of the inhibitory activities of compounds on the hedgehog pathway
Procedure, shortened: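 IC50 derived by curve fitting of luciferase RLU against log compound concentration. Stable C3H10T1/2/Gli-Luc cells, seeded overnight, were co-treated 24 h with serially diluted compound (7 points, duplicate wells) and 30 nM Shh-N-containing HEK293 conditioned medium before lysis and luminescence readout.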

Row | SMILES | pIC50
1 | C[C@@H]1CN(c2ccc(-c3cnc4c(-c5ccc(C#N)cc5)cccc4c3C3CCC3)cn2)C[C@H](C)O1 [Embodiment 259, 4-(4-cyclobutyl-3-(6-((2S,6R)-2,6-dimethylmorpholino)pyridin-3-yl)quinolin-8-yl) benzonitrile] | 7.00 to 7.30
2 | COc1c(-c2ccc(N3C[C@@H](C)O[C@@H](C)C3)cc2)cnc2c(-c3ccc(C(F)(F)F)cc3)cccc12 [Embodiment 89, (2R,6S)-4-(4-(4-methoxy-8-(4-(trifluoromethyl)phenyl)quinolin-3-yl)phenyl)-2,6-dimethylmorpholine] | ≥ 7.30
3 | COc1c(N2CCN(c3ncc(C(C)(C)O)cc3C(F)(F)F)CC2)cnc2c(-c3ccc(C#N)cc3)cccc12 [Embodiment 223] | 6.30 to 7.00
4 | CCC(=O)N1[C@H](C)CN(c2ccc(-c3cnc4c(-c5ccc(C#N)cc5)cccc4c3OC)cc2)C[C@@H]1C [Embodiment 180, 4-(3-(4-((3S, 5R)-3,5-dimethyl-4-propionylpiperazin-1-yl)phenyl)-4-methoxyquinolin-8-yl)benzonitrile] | ≥ 7.30
5 | Cc1nc(N2C[C@@H](C)O[C@@H](C)C2)ccc1-c1cnc2c(-c3ccc(C#N)cc3)cccc2c1C1CC1 [Embodiment 257, 4-(4-cyclopropyl-3-(6-((2S,6R)-2,6-dimethylmorpholino)-2-methylpyridin-3-yl)quinolin-8-yl)benzonitrile] | ≥ 7.30
6 | COc1c(N2CCC(O)(c3cc(C)cc(C)n3)CC2)cnc2c(-c3ccc(C#N)cc3)cccc12 [Embodiment 231, 4-(3-(4′-hydroxy-4,6-dimethyl-3′,4′,5′,6′-tetrahydro-2′H-[2,4′]bipyridyl-1′-yl)-4-methoxyquinolin-8-yl) benzonitrile] | ≥ 7.30
7 | COc1c(-c2ccc(N3C[C@@H](C)O[C@@H](C)C3)cc2)cnc2c(-c3ccc(C(F)(F)F)nc3)cccc12 [Embodiment 106] | 7.00 to 7.30
8 | COc1c(N2CCNCC2)cnc2c(-c3ccc(C#N)cc3)cccc12 [Embodiment 208] | 6.30 to 7.00
9 | COc1c(-c2ccc(N3C[C@@H](C)O[C@@H](C)C3)c(F)c2)cnc2c(-c3ccc(C#N)cc3)cccc12 [Embodiment 172] | ≥ 7.30
10 | COc1c(-c2ccc(N3C[C@@H](C)N(C(=O)c4ccccc4)[C@@H](C)C3)cc2)cnc2c(-c3ccc(C#N)cc3)cccc12 [Embodiment 181] | ≥ 7.30
11 | Cc1cn(-c2ccc(NCCN3C[C@@H](C)O[C@@H](C)C3)cc2)c(=O)c2cccc(-c3ccc(C#N)cc3)c12 [Embodiment 12] | 6.00 to 6.30
12 | Cc1cn(-c2ccc(N3C[C@@H](C)O[C@@H](C)C3)cc2)c(=O)c2cccc(-c3ccc(Cl)cc3)c12 [Embodiment 51] | 6.30 to 7.00
13 | COc1c(N2CCN(C(=O)CC3CCOCC3)CC2)cnc2c(-c3ccc(C#N)cc3)cccc12 [Embodiment 216] | 6.30 to 7.00
14 | COc1c(-c2ccc(N3C[C@@H](C)O[C@H](C)C3)cc2)cnc2c(-c3ccc(C#N)cc3)cccc12 [Embodiment 112] | ≥ 7.30
15 | Cc1cn(-c2ccc(N3CC(C)CC(C)C3)cc2)c(=O)c2cccc(-c3ccc(C#N)cc3)c12 (centres unmarked) [Embodiment 3] | 6.30 to 7.00
16 | Cc1cn(-c2ccc(N3C[C@@H](C)O[C@@H](C)C3)cc2)c(=O)c2cccc(-c3ccc(C#N)c(F)c3)c12 [Embodiment 59] | 6.00 to 6.30
17 | COc1c(-c2ccc(N3C[C@@H](C)O[C@@H](C)C3)cc2)cnc2c(-c3ccc(OC(F)(F)F)cc3)cc(F)cc12 [Embodiment 137] | 6.30 to 7.00
18 | Cc1cc(C#N)ccc1-c1cccc2c(=O)n(-c3ccc(N4C[C@@H](C)O[C@@H](C)C4)cc3)cc(C)c12 [Embodiment 62] | 6.30 to 7.00
19 | C[C@@H]1CN(c2ccc(-n3cc(Cl)c4c(-c5ccc(C#N)cc5)cccc4c3=O)cc2Cl)C[C@H](C)O1 [Embodiment 76, 4-(4-chloro-2-(3-chloro-4-((2S,6R)-2,6-dimethylmorpholino)phenyl)-1-oxo-1,2-dihydroisoquinolin-5-yl)benzonitrile] | 6.30 to 7.00
20 | COc1c(N2CCN(c3cnc(C(C)(C)O)cn3)CC2)cnc2c(-c3ccc(C#N)cc3)cccc12 [Embodiment 221] | ≥ 7.30
21 | CCC(=O)N1[C@H](C)CN(c2ccc(-c3cnc4c(-c5ccc(C#N)cc5)cccc4c3O)cn2)C[C@@H]1C [Embodiment 140, 4-(3-(6-((3S,5R)-3,5-dimethyl-4-propionylpiperazin-1-yl)pyridin-3-yl)-4-hydroxyquinolin-8-yl)benzonitrile] | 6.00 to 6.30
22 | COc1c(-c2ccc(N3C[C@@H](C)N(C(=O)C(C)F)[C@@H](C)C3)nc2)cnc2c(-c3ccc(C#N)cc3)cccc12 (stereo partly drawn) [Embodiment 193, 4-(3-(6-((3S, 5R)-4-(2-fluoropropanoyl)-3,5-dimethylpiperazin-1-yl)pyridin-3-yl)-4-methoxyquinolin-8-yl)benzonitrile] | 6.30 to 7.00
23 | COc1c(-c2ccc(N3C[C@@H](C)O[C@@H](C)C3)cc2)cnc2c(-c3cnn(C)c3)cccc12 [Embodiment 108] | 6.30 to 7.00
24 | C[C@@H]1CN(c2ccc(-n3ccc4c(-c5ccc(C(F)(F)F)cc5)cccc4c3=O)cn2)C[C@H](C)O1 [Embodiment 71] | 5.30 to 6.00

Row | SMILES | pIC50
25 | C[C@@H]1CN(c2ccc(-c3cnc4c(-c5ccc(C#N)cc5)cccc4c3C3=CCCC3)cn2)C[C@H](C)O1 [Embodiment 260] | 6.30 to 7.00
26 | COc1c(-c2ccc(N3C[C@@H](C)O[C@@H](C)C3)cc2)cnc2c(-c3ccncc3)cccc12 [Embodiment 97] | 6.30 to 7.00
27 | COc1c(N2C3CCC2CC(N2C[C@@H](C)O[C@@H](C)C2)C3)cnc2c(-c3ccc(C#N)cc3)cccc12 (some centres unmarked) [Embodiment 230, 4-(3-(3-(2,6-dimethylmorpholino-4-yl)-8-azabicyclo[3.2.1]octan-8-yl)-4-methoxyquinolin-8-yl)benzonitrile] | 6.30 to 7.00
28 | Cc1cn(-c2ccc(N3CC(C)NC(C)C3)cc2)c(=O)c2cccc(-c3ccc(C#N)cc3)c12 (centres unmarked) [Embodiment 15] | 6.30 to 7.00
29 | C[C@@H]1CN(c2ccc(-c3cnc4c(-c5ccc(C#N)cc5)cccc4c3N3CCC3)cc2)C[C@H](C)O1 [Embodiment 126, 4-(4-(azetidin-1-yl)-3-(4-((2S,6R)-2,6-dimethylmorpholino)phenyl)quinolin-8-yl) benzonitrile] | 6.30 to 7.00
30 | Cc1cn(-c2ccc(N3C[C@@H](C)O[C@@H](C)C3)cc2)c(=O)c2cccc(-c3ccccn3)c12 [Embodiment 53] | 6.00 to 6.30
31 | COc1c(N2CCN(c3ccc(C(C)C)cn3)CC2)cnc2c(-c3ccc(C#N)cc3)cccc12 [Embodiment 270, 4-(3-(4-(5-isopropylpyridin-2-yl)-3-)-4-methoxyquinolin-8-yl) benzonitrile] | 7.00 to 7.30
32 | CCC(=O)N1[C@H](C)CN(c2ccc(-c3nnc4c(-c5ccc(C#N)cc5)cccc4c3OC)cn2)C[C@@H]1C [Embodiment 151, 4-(3-(6-(3,5-dimethyl-4-propionylpiperazin-1-yl)pyridin-3-yl)-4-methoxycinnolin-8-yl)benzonitrile] | ≥ 7.30
33 | CCC(=O)N1CCN(c2ccc(-n3cc(C)c4c(-c5ccc(C#N)cc5)cccc4c3=O)cc2)CC1c1ccccc1 (centres unmarked) [Embodiment 18] | 6.30 to 7.00
34 | Cc1cn(-c2ccc(N3CCN4C(=O)CC[C@H]4C3)cc2)c(=O)c2cccc(-c3ccc(C#N)cc3)c12 [Embodiment 40, (S)-4-(4-methyl-1-oxo-2-(4-(6-oxo-hexahydropyrrolo[1,2-a]pyrazin-2(1H)-yl)phenyl)-1,2-dihydroisoquinolin-5-yl)benzonitrile] | ≥ 7.30
35 | COC(=O)N1C(C)CN(c2ccc(-n3cc(C)c4c(-c5ccc(C#N)cc5)cccc4c3=O)cc2)CC1C (centres unmarked) [Embodiment 28] | ≥ 7.30
36 | COc1c(-c2ccc(N3C[C@@H](C)O[C@@H](C)C3)nc2)cnc2c(-c3ccc(OC(F)(F)F)cc3)cccc12 [Embodiment 160] | ≥ 7.30
37 | C[C@@H]1CN(c2ccc(-c3cnc4c(-c5ccc(C#N)cc5)cncc4c3N(C)C)cc2)C[C@H](C)O1 [Embodiment 155, 4-(4-(dimethylamino)-3-(4-((2S,6R)-2,6-dimethylmorpholino)phenyl)-1,6-naphthyridin-8-yl)benzonitrile] | 6.30 to 7.00
38 | COc1c(-c2cnc(N3C[C@@H](C)O[C@@H](C)C3)nc2)cnc2c(-c3ccc(C#N)cc3)cccc12 [Embodiment 176, 4-(3-(2-((2S,6R)-2,6-dimethylmorpholino)pyrimidin-5-yl)-4-methoxyquinolin-8-yl) benzonitrile] | ≥ 7.30
39 | Cc1cn(-c2ccc(N3C[C@@H](C)O[C@@H](C)C3)cc2)c(=O)c2cccc(-c3cccn3C)c12 [Embodiment 48] | 5.30 to 6.00
40 | COc1c(-c2ccc(N3C[C@@H](C)O[C@@H](C)C3)nc2)cnc2c(-c3ccccc3)cccc12 [Embodiment 162] | ≥ 7.30
41 | Cc1cn(-c2ccc(N3C[C@@H](C)O[C@@H](C)C3)cc2)c(=O)c2cccc(-c3cncnc3)c12 [Embodiment 54] | 5.30 to 6.00
42 | CCC(=O)N1[C@H](C)CN(c2ccc(-c3cnc4c(-c5ccc(C#N)cc5)nccc4c3OC)cn2)C[C@@H]1C [Embodiment 149, 4-(3-(6-((3S,5R)-3,5-dimethyl-4-propionylpiperazizin-1-yl)pyridin-3-yl)-4-methoxy-1,7-naphthyridin-8-yl)benzonitrile] | ≥ 7.30
43 | CC(C)(O)c1ccc(N2CCN(c3cnc4c(-c5ccc(C#N)cc5)cccc4c3C3CC3)CC2(C)O)nc1 (centres unmarked) [Embodiment 237, 4-(4-cyclopropyl-3-(3-hydroxy-4-(5-(1-hydroxy-1-methyl-ethyl)pyridin-2-yl)-3-methylpiperazin-1-yl)quinolin-8-yl)benzonitrile] | 6.30 to 7.00
44 | COc1c(-c2ccc(N3C[C@@H](C)O[C@@H](C)C3)cc2)nnc2c(-c3ccc(C#N)cc3)cccc12 [Embodiment 152, 4-(3-(4-((2R,6S)-2,6-dimethylmorpholino)phenyl)-4-methoxycinnolin-8-yl) benzonitrile] | ≥ 7.30
45 | Cc1cn(-c2ccc(N3C[C@@H](C)O[C@@H](C)C3)nc2)c(=O)c2cccc(-c3ccc(C(F)(F)F)cc3)c12 [Embodiment 67] | 6.00 to 6.30
46 | Cc1cn(-c2ccc(N3CC(C)N(Cc4ccccc4)C(C)C3)cc2)c(=O)c2cccc(-c3ccc(C#N)cc3)c12 (centres unmarked) [Embodiment 35] | 6.30 to 7.00
47 | Cc1cn(-c2ccc(N3C[C@@H](C)O[C@@H](C)C3)cc2)c(=O)c2cccc(-c3ccc(Cl)s3)c12 [Embodiment 45] | 5.30 to 6.00
